# According to publication PMC10794144, “A novel antibiotic class targeting the lipopolysaccharide transporter” (Nature, 2024):
# Where two headings read alike, the source gives them in different places.
# What was measured:
# [1] = Human plasma precipitation assay; set-up: key: 0: none; 1: mild; 2: moderate; 3: marked; details: observed only at 2 mg/mL (0.125–2 mg/mL tested)
# Experimental: For the plasma precipitation assay, test item formulations of compounds were diluted as follows with the vehicle (0.9% aqueous sodium chloride solution): undiluted, 1:2, 1:4, 1:8 and 1:16. These serial dilutions were then added into test tubes containing 0.5 ml of plasma to give a final assay volume of 1 ml with a final concentration of 4 mg ml^−1 assay volume or less. After centrifugation of the samples (1,811g; 10 min; at room temperature), plasma precipitation was visually determined by scoring the resulting pellet (score: 0, none; 1, mild; 2, moderate; 3, marked).
# [2] = test system: A. baumannii
# [3] = Distribution coefficient logD7.4; format: physicochemical; details: pH 7.4
smiles,measurement,setting,value
CN1C(=O)[C@H](CCCCN)NC(=O)[C@H](CCCN)NCc2cccnc2Sc2cccc(-c3ccc(C(=O)O)cc3)c2CNC(=O)[C@@H]1Cc1c[nH]c2ccccc12 [zosurabalpin],Precipitation score,[1],Observed only at 2 mg/mL^6 (1)
same,MIC_WT,"[2]; A. baumannii ATCC 17978, wild type (parental strain)",0.06 µM
same,MIC_WT,"[2]; A. baumannii ATCC 19606, wild type (parental strain)",0.25 µM
same,MIC_WT,"[2]; A. baumannii ROB08705, wild type (parental strain)",0.13 µM
same,MIC_WT,"[2]; A. baumannii ROB08706, wild type (parental strain)",1.0 µM
same,MIC_value,"[2]; ATCC 17978 clone 1D1, run AB17978_3280_HS, evolved in HS/MHB",128 µM
same,MIC_value,"[2]; ATCC 17978 clone 1D3, run AB17978_3280_HS, evolved in HS/MHB",128 µM
same,MIC_value,"[2]; ATCC 17978 clone 1E3, run AB17978_3280_MHB, evolved in MHB",16 µM
same,MIC_value,"[2]; ATCC 17978 clone 1F1, run AB17978_3280_MHB, evolved in MHB",>128 µM
same,MIC_value,"[2]; ATCC 17978 clone 2C1, run AB17978_3280_HS, evolved in HS/MHB",16 µM
same,MIC_value,"[2]; ATCC 17978 clone 2C1, run AB17978_3280_MHB, evolved in MHB",2 µM
same,MIC_value,"[2]; ATCC 17978 clone 2C2, run AB17978_3280_HS, evolved in HS/MHB",8 µM
same,MIC_value,"[2]; ATCC 17978 clone 2C3, run AB17978_3280_HS, evolved in HS/MHB",4 µM
same,MIC_value,"[2]; ATCC 17978 clone 2C4, run AB17978_3280_MHB, evolved in MHB",8 µM
same,MIC_value,"[2]; ATCC 17978 clone 2D2, run AB17978_3280_MHB, evolved in MHB",8 µM
same,MIC_value,"[2]; ATCC 17978 clone 2D3, run AB17978_3280_HS, evolved in HS/MHB",32 µM
same,MIC_value,"[2]; ATCC 17978 clone 3D1, run AB17978_3280_HS, evolved in HS/MHB",32 µM
same,MIC_value,"[2]; ATCC 17978 clone 4D1, run AB17978_3280_MHB, evolved in MHB",64 µM
same,MIC_value,"[2]; ATCC 17978 clone 5B1, run AB17978_3280_HS, evolved in HS/MHB",1 µM
same,MIC_value,"[2]; ATCC 17978 clone 5C1, run AB17978_3280_HS, evolved in HS/MHB",64 µM
same,MIC_value,"[2]; ATCC 17978 clone 5E1, run AB17978_3280_MHB, evolved in MHB",>32 µM
same,MIC_value,"[2]; ATCC 17978 clone 6E1, run AB17978_3280_HS, evolved in HS/MHB",32 µM
same,MIC_value,"[2]; ATCC 17978 clone 6E1, run AB17978_3280_MHB, evolved in MHB",4 µM
same,MIC_value,"[2]; ATCC 17978 clone 6E2, run AB17978_3280_HS, evolved in HS/MHB",16 µM
same,MIC_value,"[2]; ATCC 17978 clone 6E3, run AB17978_3280_HS, evolved in HS/MHB",32 µM
same,MIC_value,"[2]; ATCC 17978 clone 6E4, run AB17978_3280_HS, evolved in HS/MHB",32 µM
same,MIC_value,"[2]; ATCC 17978 clone 6E4, run AB17978_3280_MHB, evolved in MHB",8 µM
same,MIC_value,"[2]; ATCC 17978 clone 6E5, run AB17978_3280_HS, evolved in HS/MHB",32 µM
same,MIC_value,"[2]; ATCC 17978 clone 6E6, run AB17978_3280_HS, evolved in HS/MHB",8 µM
same,MIC_value,"[2]; ATCC 17978 clone 6E9, run AB17978_3280_HS, evolved in HS/MHB",8 µM
same,MIC_value,"[2]; ATCC 19606 clone 1C2, run AB19606_3280_HS, evolved in HS_MHB",8 µM
same,MIC_value,"[2]; ATCC 19606 clone 1C3, run AB19606_3280_HS, evolved in HS_MHB",16 µM
same,MIC_value,"[2]; ATCC 19606 clone 1C4, run AB19606_3280_HS, evolved in HS_MHB",8 µM
same,MIC_value,"[2]; ATCC 19606 clone 2C1, run AB19606_3280_HS, evolved in HS_MHB",64 µM
same,MIC_value,"[2]; ATCC 19606 clone 2C3, run AB19606_3280_HS, evolved in HS_MHB",64 µM
same,MIC_value,"[2]; ATCC 19606 clone 2C6, run AB19606_3280_HS, evolved in HS_MHB",16 µM
same,MIC_value,"[2]; ATCC 19606 clone 2E1, run AB19606_3280_MHB, evolved in MHB",16 µM
same,MIC_value,"[2]; ATCC 19606 clone 2E2, run AB19606_3280_MHB, evolved in MHB",16 µM
same,MIC_value,"[2]; ATCC 19606 clone 2E3, run AB19606_3280_MHB, evolved in MHB",8 µM
same,MIC_value,"[2]; ATCC 19606 clone 2E6, run AB19606_3280_MHB, evolved in MHB",16 µM
same,MIC_value,"[2]; ATCC 19606 clone 3D1, run AB19606_3280_MHB, evolved in MHB",2 µM
same,MIC_value,"[2]; ATCC 19606 clone 3F1, run AB19606_3280_MHB, evolved in MHB",64 µM
same,MIC_value,"[2]; ATCC 19606 clone 4C1, run AB19606_3280_HS, evolved in HS_MHB",4 µM
same,MIC_value,"[2]; ATCC 19606 clone 4C2, run AB19606_3280_HS, evolved in HS_MHB",16 µM
same,MIC_value,"[2]; ATCC 19606 clone 4C7, run AB19606_3280_HS, evolved in HS_MHB",64 µM
same,MIC_value,"[2]; ATCC 19606 clone 5C4, run AB19606_3280_HS, evolved in HS_MHB",32 µM
same,MIC_value,"[2]; ATCC 19606 clone 5E2, run AB19606_3280_HS, evolved in HS_MHB",16 µM
same,MIC_value,"[2]; ATCC 19606 clone 5E3, run AB19606_3280_HS, evolved in HS_MHB",8 µM
same,MIC_value,"[2]; ATCC 19606 clone 5E5, run AB19606_3280_HS, evolved in HS_MHB",<2 µM
same,MIC_value,"[2]; ATCC 19606 clone 5E6, run AB19606_3280_HS, evolved in HS_MHB",16 µM
same,MIC_value,"[2]; ATCC 19606 clone 5E7, run AB19606_3280_HS, evolved in HS_MHB",8 µM
same,MIC_value,"[2]; ATCC 19606 clone 5F1, run AB19606_3280_MHB, evolved in MHB",>128 µM
same,MIC_value,"[2]; ATCC 19606 clone 5F2, run AB19606_3280_MHB, evolved in MHB",16 µM
same,MIC_value,"[2]; ATCC 19606 clone 5F3, run AB19606_3280_MHB, evolved in MHB",16 µM
same,MIC_value,"[2]; ATCC 19606 clone 6E1, run AB19606_3280_HS, evolved in HS_MHB",8 µM
same,MIC_value,"[2]; ROB08705 clone 1C1, run ABR05_3280_HS, evolved in HS_MHB",4 µM
same,MIC_value,"[2]; ROB08705 clone 2C1, run ABR05_3280_MHB, evolved in MHB",>32 µM
same,MIC_value,"[2]; ROB08705 clone 2D1, run ABR05_3280_MHB, evolved in MHB",8 µM
same,MIC_value,"[2]; ROB08705 clone 3B1, run ABR05_3280_HS, evolved in HS_MHB",4 µM
same,MIC_value,"[2]; ROB08705 clone 3B1, run ABR05_3280_MHB, evolved in MHB",8 to 16 µM
same,MIC_value,"[2]; ROB08705 clone 3B3, run ABR05_3280_HS, evolved in HS_MHB",4 to 8 µM
same,MIC_value,"[2]; ROB08705 clone 3B4, run ABR05_3280_HS, evolved in HS_MHB",16 µM
same,MIC_value,"[2]; ROB08705 clone 3B5, run ABR05_3280_HS, evolved in HS_MHB",2 µM
same,MIC_value,"[2]; ROB08705 clone 3B6, run ABR05_3280_HS, evolved in HS_MHB",1 µM
same,MIC_value,"[2]; ROB08705 clone 4B1, run ABR05_3280_HS, evolved in HS_MHB",128 µM
same,MIC_value,"[2]; ROB08705 clone 4B2, run ABR05_3280_HS, evolved in HS_MHB",4 µM
same,MIC_value,"[2]; ROB08705 clone 4D1, run ABR05_3280_MHB, evolved in MHB",4 µM
same,MIC_value,"[2]; ROB08705 clone 5C2, run ABR05_3280_HS, evolved in HS_MHB",4 µM
same,MIC_value,"[2]; ROB08705 clone 5C3, run ABR05_3280_HS, evolved in HS_MHB",32 µM
same,MIC_value,"[2]; ROB08705 clone 5C5, run ABR05_3280_HS, evolved in HS_MHB",8 µM
same,MIC_value,"[2]; ROB08706 clone 1D1, run ABR06_3280_MHB, evolved in MHB",32 to 64 µM
same,MIC_value,"[2]; ROB08706 clone 1E1, run ABR06_3280_HS, evolved in HS_MHB",4 to 8 µM
same,MIC_value,"[2]; ROB08706 clone 1E2, run ABR06_3280_HS, evolved in HS_MHB",64 µM
same,MIC_value,"[2]; ROB08706 clone 2C1, run ABR06_3280_MHB, evolved in MHB",32 µM
same,MIC_value,"[2]; ROB08706 clone 2C3, run ABR06_3280_MHB, evolved in MHB",4 µM
same,MIC_value,"[2]; ROB08706 clone 2D1, run ABR06_3280_HS, evolved in HS_MHB",2 µM
same,MIC_value,"[2]; ROB08706 clone 2D5, run ABR06_3280_HS, evolved in HS_MHB",4 µM
same,MIC_value,"[2]; ROB08706 clone 2D6, run ABR06_3280_HS, evolved in HS_MHB",4 µM
same,MIC_value,"[2]; ROB08706 clone 2D7, run ABR06_3280_HS, evolved in HS_MHB",2 µM
same,MIC_value,"[2]; ROB08706 clone 2E1, run ABR06_3280_HS, evolved in HS_MHB",32 µM
same,MIC_value,"[2]; ROB08706 clone 3B3, run ABR06_3280_MHB, evolved in MHB",4 µM
same,MIC_value,"[2]; ROB08706 clone 3E1, run ABR06_3280_HS, evolved in HS_MHB",4 µM
same,MIC_value,"[2]; ROB08706 clone 4D1, run ABR06_3280_MHB, evolved in MHB",8 to 16 µM
same,MIC_value,"[2]; ROB08706 clone 4D2, run ABR06_3280_MHB, evolved in MHB",4 to 8 µM
same,MIC_value,"[2]; ROB08706 clone 4E1, run ABR06_3280_HS, evolved in HS_MHB",4 µM
same,MIC_value,"[2]; ROB08706 clone 5C1, run ABR06_3280_MHB, evolved in MHB",4 µM
same,MIC_value,"[2]; ROB08706 clone 5D3, run ABR06_3280_MHB, evolved in MHB",4 to 8 µM
same,logD7.4,[3],–2.46
